Reference: PubChem BioAssay (NCI)
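In this assay, cells in 96-well plates receive the compound at five concentrations for 48 hours. Endpoints are linearly interpolated between the surrounding concentrations. At the GI50, growth is halved. TGI marks complete inhibition of growth.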

What was measured:
Assay in all cases: inhibition of tumour cell growth, NCI panel, 48 h
[1] = test system: MDA-MB-231 breast
[2] = test system: OVCAR-8 ovarian
[3] = test system: SK-MEL-2 melanoma
[4] = test system: SN12C renal
[5] = test system: CCRF-CEM leukemia
[6] = test system: SR leukemia
[7] = test system: UACC-257 melanoma
[8] = test system: U251 CNS
[9] = test system: TK-10 renal
[10] = test system: SW-620 colon

C[C@@H](NC(=O)/C(C#N)=C/c1ccc([N+](=O)[O-])cc1)c1ccccc1
GI50 [1]: 2.3 µM
TGI [1]: 5.23 µM
GI50 [2]: 2.87 µM
TGI [2]: 8.05 µM
GI50 [3]: 3.3 µM
TGI [3]: 8.52 µM
GI50 [4]: 2.11 µM
TGI [4]: 4.85 µM
GI50 [5]: 2.56 µM
TGI [5]: > 38.9 µM
GI50 [6]: 1.73 µM
TGI [6]: 5.55 µM
GI50 [7]: 2.38 µM
TGI [7]: 7.09 µM
GI50 [8]: 1.79 µM
TGI [8]: 3.44 µM
GI50 [9]: 5.07 µM
TGI [9]: 12.1 µM
GI50 [10]: 1.83 µM
TGI [10]: 3.81 µM

COc1cc(C(=O)N2CCN(c3ccccc3)CC2)c2ccccc2n1
GI50 [1]: 0.301 µM
TGI [1]: > 25.2 µM
GI50 [2]: 0.248 µM
TGI [2]: > 23.8 µM
GI50 [3]: 0.432 µM
TGI [3]: > 100 µM
GI50 [4]: 0.485 µM
TGI [4]: > 100 µM
GI50 [5]: 0.128 µM
TGI [5]: > 100 µM
GI50 [6]: 0.0537 µM
TGI [6]: > 100 µM
GI50 [7]: 0.108 µM
TGI [7]: > 100 µM
GI50 [8]: 0.0955 µM
TGI [8]: > 100 µM
GI50 [9]: 0.287 µM
TGI [9]: > 100 µM
GI50 [10]: 0.0526 µM
TGI [10]: > 100 µM

COc1ccc2c(c1)CC[C@@H]1[C@@H]2CC[C@]2(C)c3c(cc(C(=O)O)c4sccc34)C[C@@H]12
GI50 [1]: 25.6 µM
TGI [1]: 59.7 µM
GI50 [2]: 24.5 µM
TGI [2]: 88.1 µM
GI50 [3]: 37.5 µM
TGI [3]: > 100 µM
GI50 [4]: 17.8 µM
TGI [4]: 41.3 µM
GI50 [5]: 3.42 µM
TGI [5]: 13.3 µM
GI50 [6]: 16.4 µM
TGI [6]: 45.1 µM
GI50 [7]: 26.7 µM
TGI [7]: 61.4 µM
GI50 [8]: 16.4 µM
TGI [8]: 47.5 µM
GI50 [9]: 19.2 µM
TGI [9]: 48.1 µM
GI50 [10]: 16.1 µM
TGI [10]: 36.7 µM

COc1ccc(Nc2cc(C)nc(NCc3ccccc3)n2)cc1
GI50 [1]: 3.45 µM
TGI [1]: 16.1 µM
GI50 [2]: 6.71 µM
TGI [2]: 35.2 µM
GI50 [3]: 6.34 µM
TGI [3]: 23.8 µM
GI50 [4]: 5.28 µM
TGI [4]: 20.4 µM
GI50 [5]: 3.06 µM
TGI [5]: 23.7 µM
GI50 [6]: 3.32 µM
TGI [6]: 13 µM
GI50 [7]: 3.18 µM
TGI [7]: 13.3 µM
GI50 [8]: 3.13 µM
TGI [8]: 14.3 µM
GI50 [9]: 5.48 µM
TGI [9]: 18.9 µM
GI50 [10]: 4.2 µM
TGI [10]: 20 µM

CCOC(=O)Nc1nc2ccc(Br)cc2s1
GI50 [1]: > 50 µM
TGI [1]: > 50 µM
GI50 [2]: > 50 µM
TGI [2]: > 50 µM
GI50 [3]: > 50 µM
TGI [3]: > 50 µM
GI50 [4]: > 50 µM
TGI [4]: > 50 µM
GI50 [5]: > 50 µM
TGI [5]: > 50 µM
GI50 [6]: > 50 µM
TGI [6]: > 50 µM
GI50 [7]: > 50 µM
TGI [7]: > 50 µM
GI50 [8]: > 50 µM
TGI [8]: > 50 µM
GI50 [9]: > 50 µM
TGI [9]: > 50 µM
GI50 [10]: > 50 µM
TGI [10]: > 50 µM

O=C([O][Hg][CH2]C1OCCOC1[CH2][Hg][O]C(=O)c1ccccc1)c1ccccc1 (centres undefined)
GI50 [1]: 16.3 µM
TGI [1]: 31.7 µM
GI50 [2]: 14.9 µM
TGI [2]: 44 µM
GI50 [3]: 5.05 µM
GI50 [4]: 13.2 µM
TGI [4]: 27.9 µM
GI50 [5]: 1.66 µM
TGI [5]: > 23.4 µM
GI50 [6]: 2.22 µM
TGI [6]: 7.21 µM
GI50 [7]: 1.89 µM
TGI [7]: 3.4 µM
GI50 [8]: 15.1 µM
TGI [8]: 28.4 µM
GI50 [9]: 1.91 µM
TGI [9]: 3.35 µM
GI50 [10]: 1.54 µM
TGI [10]: 3 µM

C#CCN(Cc1nc2cc(C(F)(F)F)ccc2nc1-c1ccccc1)c1ccc(C)cc1
GI50 [1]: 9.39 µM
TGI [1]: 40.4 µM
GI50 [2]: 10.9 µM
TGI [2]: > 73.9 µM
GI50 [3]: 6.19 µM
TGI [3]: 34.5 µM
GI50 [4]: > 28.2 µM
TGI [4]: > 59.9 µM
GI50 [5]: > 55.7 µM
TGI [5]: > 100 µM
GI50 [6]: 16.1 µM
TGI [6]: 41.3 µM
GI50 [7]: 19.5 µM
TGI [7]: 59 µM
GI50 [8]: 11.6 µM
TGI [8]: > 38.1 µM
GI50 [9]: 15.4 µM
TGI [9]: > 39.6 µM
GI50 [10]: 12.8 µM
TGI [10]: > 100 µM

CC(C)(C)[Si](C)(C)OC1[C@@H](O[Si](C)(C)C(C)(C)C)[C@@H](CNC(=O)NC(=O)CF)O[C@H]1n1cnc2c(NC(=O)Nc3ccccc3)ncnc21 (some centres undefined)
GI50 [1]: 7.76 µM
TGI [1]: 23.1 µM
GI50 [2]: 12.8 µM
TGI [2]: > 50 µM
GI50 [3]: 30.9 µM
TGI [3]: > 50 µM
GI50 [4]: 3 µM
TGI [4]: 13.2 µM
GI50 [5]: 11.6 µM
TGI [5]: > 50 µM
GI50 [6]: 4.5 µM
TGI [6]: 32 µM
GI50 [7]: 20 µM
TGI [7]: > 50 µM
GI50 [8]: 9.67 µM
TGI [8]: 25.8 µM
GI50 [9]: 16.5 µM
TGI [9]: 41.7 µM
GI50 [10]: 15.5 µM
TGI [10]: > 50 µM

COc1ccc(Cn2cc3c(c2-c2ccccc2)CCc2cnoc2-3)cc1OC
GI50 [1]: 2.13 µM
TGI [1]: > 100 µM
GI50 [2]: 3.48 µM
TGI [2]: > 100 µM
GI50 [3]: 0.735 µM
TGI [3]: > 100 µM
GI50 [4]: 5.16 µM
TGI [4]: > 100 µM
GI50 [5]: 1.78 µM
TGI [5]: > 100 µM
GI50 [6]: 0.353 µM
TGI [6]: > 100 µM
GI50 [7]: 60.4 µM
TGI [7]: > 100 µM
GI50 [8]: 0.774 µM
TGI [8]: > 100 µM
GI50 [9]: 2.3 µM
TGI [9]: > 100 µM
GI50 [10]: 0.455 µM
TGI [10]: > 100 µM

COCCNc1ccc2c3c(cccc13)C(=O)N(CCN(C)C)C2=O
GI50 [1]: 12.9 µM
TGI [1]: > 25 µM
GI50 [2]: 6.85 µM
TGI [2]: > 25 µM
GI50 [3]: 8.24 µM
TGI [3]: > 25 µM
GI50 [4]: 7.23 µM
TGI [4]: > 25 µM
GI50 [5]: 6.38 µM
TGI [5]: > 25 µM
GI50 [6]: 3.67 µM
TGI [6]: 11.4 µM
GI50 [7]: 7.23 µM
TGI [7]: > 25 µM
GI50 [8]: 8.71 µM
TGI [8]: > 25 µM
GI50 [9]: 4.2 µM
TGI [9]: 22.1 µM
GI50 [10]: 6.69 µM
TGI [10]: > 25 µM

Cn1cc(C2=C(c3c4n(c5ccccc35)CCC(CN)C4)C(=O)NC2=O)c2ccccc21 (centres undefined)
GI50 [1]: 2.53 µM
TGI [1]: 6.05 µM
GI50 [2]: 3.77 µM
TGI [2]: 8.92 µM
GI50 [3]: 4.15 µM
TGI [3]: 7.92 µM
GI50 [4]: 2.72 µM
TGI [4]: 6.56 µM
GI50 [5]: 2.43 µM
TGI [5]: 7.23 µM
GI50 [6]: 2.17 µM
TGI [6]: 7.81 µM
GI50 [7]: 3.23 µM
TGI [7]: 6.68 µM
GI50 [8]: 2.74 µM
TGI [8]: 6 µM
GI50 [9]: 2.62 µM
TGI [9]: 5.58 µM
GI50 [10]: 2.96 µM
TGI [10]: 6.69 µM

COc1cc(/C(=C2/O[C@@H]([C@H]3COC(C)(C)O3)[C@H]3OC(C)(C)O[C@@H]23)c2ccc3ccccc3c2)cc(OC)c1OC
GI50 [1]: 6.28 µM
TGI [1]: 69.7 µM
GI50 [2]: 3.89 µM
TGI [2]: > 100 µM
GI50 [3]: 1.53 µM
TGI [3]: 4.12 µM
GI50 [4]: 3.65 µM
TGI [4]: > 100 µM
GI50 [5]: 48.3 µM
TGI [5]: > 100 µM
GI50 [6]: > 100 µM
TGI [6]: > 100 µM
GI50 [7]: 4.28 µM
TGI [7]: 67.9 µM
GI50 [8]: 3.12 µM
TGI [8]: 11.8 µM
GI50 [9]: 3.2 µM
TGI [9]: 7.2 µM
GI50 [10]: 4.31 µM
TGI [10]: > 100 µM

CONC(C)=O
TGI [1]: > 100 µM
TGI [2]: > 100 µM
TGI [3]: > 100 µM
TGI [4]: > 100 µM
TGI [5]: > 100 µM
TGI [6]: > 100 µM
TGI [7]: > 100 µM
TGI [8]: > 100 µM
TGI [9]: > 100 µM
TGI [10]: > 100 µM

CCOC(=O)c1cc(C(=O)c2cc(OC)c(OC)c(OC)c2)n2c1ccc1ccccc12
GI50 [1]: 1.48 µM
TGI [1]: > 100 µM
GI50 [2]: 0.489 µM
TGI [2]: > 100 µM
GI50 [3]: 0.932 µM
TGI [3]: > 100 µM
GI50 [4]: 0.814 µM
TGI [4]: > 100 µM
GI50 [5]: 0.322 µM
TGI [5]: > 100 µM
GI50 [6]: 0.0704 µM
TGI [6]: > 100 µM
GI50 [7]: 2.27 µM
TGI [7]: > 100 µM
GI50 [8]: 0.428 µM
TGI [8]: > 100 µM
GI50 [9]: 2.37 µM
TGI [9]: > 100 µM
GI50 [10]: 0.157 µM
TGI [10]: > 100 µM

CC[C@@H](C(=O)[C@H](C)[C@H](O)[C@@H](C)[C@H]1O[C@H]([C@@H](CC)C(=O)N(CC)CC)CC[C@H]1C)C1O[C@]2(C=C[C@@H](O)[C@]3(CC[C@@](C)([C@H]4CC[C@](O)(CC)[C@H](C)O4)O3)O2)[C@H](C)C[C@@H]1C (some centres undefined)
GI50 [1]: 1.86 µM
TGI [1]: 4.29 µM
GI50 [2]: 3.42 µM
TGI [2]: 21.1 µM
GI50 [3]: 3.19 µM
TGI [3]: 9.21 µM
GI50 [4]: 2.75 µM
TGI [4]: 10.1 µM
GI50 [5]: 3.39 µM
TGI [5]: 13.4 µM
GI50 [6]: 2.91 µM
TGI [6]: 13.6 µM
GI50 [7]: 3.07 µM
TGI [7]: 12.4 µM
GI50 [8]: 3.33 µM
TGI [8]: 14 µM
GI50 [9]: 3.35 µM
TGI [9]: 26.7 µM
GI50 [10]: 3.22 µM
TGI [10]: 13.3 µM
